Laboratory results from article PMC9510126, “Hydrophobicity is a key determinant in the activity of arginine-rich cell penetrating peptides” (Scientific Reports, 2022).
Ends that are not written are not given here. * marks the point of attachment. RhodamineB = CCN(CC)c1ccc2c(-c3ccccc3C(=O)*)c3ccc(=[N+](CC)CC)cc-3oc2c1

Tests used:
[1] = design: method as in PMID 24227203; settings: cited from earlier work
live cells = settings: cited from earlier work
Experimental: Several strategies have been pursued to improve the delivery properties of CPPs like TAT. They include addition of endosomolytic peptide sequences, addition of hydrophobic residues and cyclization. We and others have shown that reagents which combine multiple copies of the TAT peptide, or TAT-like analogs, are also more efficient at entering cells than their monomeric TAT counterpart. […] In particular, protein payloads co-incubated with dfTAT reach the cytosol of cells by escaping late endosomes specifical ...

[2] = C18 reverse phase HPLC hydrophobicity of (X)TAT and d(X)TAT peptides; assay type: physicochemical; settings: chromatographic, C18, 0–40% B over 20 min
Experimental: In order to assess the hydrophobicity contributed by each X group, the peptides were first analyzed by reverse phase HPLC using a C18 column, using gradients of buffer A (water/TFA 99.9:0.1) and buffer B (acetonitrile/water/TFA 89.9:10:0.1 v:v:v) (gradient of 0–40% B over 20 min). […] All d(X)TAT peptides eluted over a range of 10–35% acetonitrile. […] One caveat of this approach is that the buffer system used for peptide analysis is pH 2 (due to the presence of TFA, required to protonate residue side chains). However, pH 2 is not representative of the pH that CPPs may be exposed to when in contact with cells, either pH 7.2 outside the plasma membrane, or pH between 6.5 and 4.5 while inside acidic endosomes. In order to establish the relative hydrophobicities of d(X)TAT peptides at these pHs, we sought to use other techniques, including thin layer chromatography using C18, aluminum oxide or silica stationary phases. Unfortunately, the arginine-rich peptides could not be separated on these systems. To solve this problem, each individual X group was synthesized, using acetylated and amidated N and C-terminal positions to mimic the peptide backbone found in the d(X)TAT constructs (Fig. 1A, Figure S11). Each Ac-X-NH2 group was analyzed by HPLC and by RP18 TLC, using 40% acetonitrile and 60% PBS as mobile phase. The HPLC elutions of Ac-X-NH2 correlated with the HPLC elutions of their respective d(X)TAT counterparts (Fig. 1C). Similarly, the relative hydrophobicities of Ac-X-NH2 determined by TLC (measured as 1-Rf) at pH 4 or 8 were in good agreement with the results obtained by HPLC (Fig. 1D). […] In the case of DEAC, the protonation state of the fluorophore has, to our knowledge, not been characterized.
All rpHPLC retention times were analyzed using an Agilent HP 1200 series instrument on an analytical Phenomenex Luna Omega Polar C18 column (5 μm, 4.6 mm × 250 mm). The flow rate was 2 mL/min, and detection was at 214 nm. A binary solvent system was used comprising 99.9% H2O/0.1% TFA (solvent A) and 90% Acetonitrile/9.9% H2O/0.1% TFA (solvent B). […]

MDA-MB-231 cells = assay: Delivery of TMR-k5 probe into live cells (nuclear staining); assay type: cell-based, human; settings: MDA-MB-231, TMR-k5 20 μM, 1 h, biological triplicates
Source text: To test the relative delivery efficiency of the d(X)TAT peptides, the cell lines MDA-MB-231 (epithelial-like, human breast cancer, spindle-shaped) and Neuro-2a (mouse neuroblastoma with neuronal and amoeboid stem cell morphology) were chosen. These cell lines are routinely used in cancer research, neuroscience, and toxicology. In the context of this study, we rationalized that the distinct differences in origin and characteristics between MDA-MB-231 and Neuro-2a properties may be useful to assess the generality of the results obtained. MDA-MB-231 or Neuro-2a cells were incubated with d(X)TAT peptides at various concentrations and TMR-k5 (20 μM) for 1 h. Cells were then washed, incubated with the DNA stain Hoechst and the live/dead marker SYTOX green (or SYTOX blue), and imaged by fluorescence microscopy. The localization of TMR-k5 in individual nuclei was then assessed by measuring the overlap between TMR and Hoechst signals (Fig. 2, Figure S13). […] This is because, in our experience, dfTAT and dfTAT analogs display a threshold behavior where, below a certain endosomal concentration, endosomal leakage is not achieved. In contrast above this threshold most late endosomes are permeabilized. […] Our rationale was therefore to titrate cells with different concentrations of d(X)TAT agents, monitor how many cells display cytosolic/nuclear delivery of TMR-k5, and compare the different d(X)TAT peptides.
MDA-MB-231 and Neuro2a cells obtained from ATCC (breast cancer-derived epithelial) were cultured in humidified atmosphere at 5% CO2 and 37 °C. Cells were seeded in plastic 48-well plates (Fisher) for quantitative analysis or 8-well Labtek II plates (Fisher) for qualitative imaging at 100× magnification. The cells were grown to 80–90% confluency in a 37 °C humidified atmosphere containing 5% CO2. Cells were washed three times with Leibovitz’s L15 media (L15) (Fisher). Cells were then incubated with peptide and 20 µM of the TMR-k5 pentalysine probe at 37 °C for 1 h. This was followed by washing the cells three times with L15 supplemented with heparin (Sigma-Aldrich) (1 mg/mL) and an extra L15 wash. […] Additionally, the cell permeable dye Hoechst 33342 (Thermo Fisher Scientific o) was used for nuclear staining. Cells were imaged using an EVOS FL Auto 2 inverted microscope (Thermo Fisher Scientific). The microscope is equipped with a heating chamber maintained at 37 °C. Images were acquired using bright field imaging and five fluorescence filter sets: CFP (Ex = 436 ± 10 nm, Em = 480 ± 20 nm), RFP (Ex = 560 ± 20 nm, Em = 630 ± 35 nm), FITC (Ex = 488 ± 10 nm Em = 520 ± 20 nm), DAPI (Ex = 350 ± 50 nm, Em = 460 ± 25 nm), […]. For image viewing and processing individual images, the Celleste 4.0 software (Thermo Fisher Scientific) was used. Nuclear regions in 20× images where identified using Hoechst staining (the quantification process is described in Figure S13). The intensity of these objects in the TMR channel was then determined using the Celleste software. Cells stained by the SYTOX or DRAQ dyes were considered dead and not counted as positive for delivery. Cells displaying a nuclear TMR-k5 fluorescence above the fluorescence threshold determined for TMR-k5 alone were considered positive for delivery (if excluding SYTOX or DRAQ7 stain, and if visually showing stained nucleoli for confirmation of intracellular localization). The percentage of cells positive for TMR-k5 nuclear staining was then calculated, using Hoechst-stained cells to count the total number of cells present. […] Instead, this assay quantifies the number of cells in which the nuclear fluorescence of TMR-k5 is above a detection threshold. This threshold is dependent on the microscope, imaging conditions, and the concentration of TMR-k5 used during incubation (Figure S13). The reproducibility of all the experiments was assessed by performing experiments with independent batches of cell cultures on three different days (i.e., biological triplicates). […]

For `O=C1OC2(c3ccc(O)cc3Oc3cc(O)ccc32)c2ccccc21` [fluorescein], the “pKa (dianionic/monoanionic forms)” value [1] is listed as 6.4, the “pKa (monoanionic/neutral forms)” value [1] is listed as 4.3 and the “pKa (neutral/cationic forms)” value [1] is listed as 2.1.
In the case of “(CK(TMR)RKKRRQRRR)2 (disulfide) [dfTAT, dimer of TAT linked by a cystine disulfide bridge, labeled with two tetramethylrhodamine fluorophores]”, the endosomal escape (live cells) is listed as “high levels of endosomal escape”, the “time for cell penetration and payload delivery” value (live cells) is listed as “less than an hour” and the “protein payload remaining trapped inside endosomes relative to what entered the cytosol” value (live cells; protein payloads co-incubated with dfTAT) is listed as “less than 10%”.
In the case of “(K(RhB))TAT: monomeric peptide CXRKKRRQRRRG with X = K(RhB) (CK(RhodamineB)RKKRRQRRRG-NH2)”, the “effect of dimerization on hydrophobicity (dimer vs monomer)” value ([2]; pH 2, (X)TAT vs d(X)TAT) is reported as “most impacted by dimerization”.
In the case of “d(K(RhB))TAT: disulfide dimer of CXRKKRRQRRRG with X = lysine conjugated to rhodamine B (CK(RhodamineB)RKKRRQRRRG-NH2; also: disulfide dimer)”, the “d(X)TAT concentration at which delivery is achieved in a high percentage of cells” value (MDA-MB-231 cells) is reported as less than 3 µM and the “relative hydrophobicity of X group by C18 HPLC” value ([2]; 0.1% TFA (pH 2), ranking within the d(X)TAT series) is reported as “most hydrophobic”.
